In the OligoGym collection one finds target mRNA inhibition data, which are given here for 38 sequences.

One data set concerns the target DGAT2. The conditions noted are these: ASO.
The target in a further data set is SNHG14. The settings on record: ASO, Human Neuronal Cell.

Values joined by “and” are separate entries in the source; they are usually repeats but may differ in a detail not shown here. Identical values can stand only once. After the bases stand the sugars from the 5' end (letter, count) and the backbone: PS all phosphorothioate, else s phosphorothioate and o phosphodiester by linkage. Methylation of C is not given here. e = 2'-O-(2-methoxyethyl) (MOE); l = locked nucleic acid (LNA); d = 2'-deoxy (DNA)

On to “GCCAGAGTTATCCTCAATTC (sugars e5 d10 e5, PS)”, for which the target mRNA inhibition with DGAT2 (HepG2, 2.5 µM) worked out at 89%; with DGAT2 (HepG2, 10 µM), 78%.

“GCTTACCAACAGTGGTGATG (sugars e5 d10 e5, PS)”: in the data set with DGAT2 (HepG2, 0.12 µM), the target mRNA inhibition was found to be 21%.

For “CTGACATGGTAAGTCCTGAT (sugars e5 d10 e5, PS)”, the target mRNA inhibition with DGAT2 (HepG2, 2.5 µM) is 76% and 52%; with DGAT2 (HepG2, 10 µM), 93% and 89%.

As to “GTGTAGCCAGGTAAGGCCGT (sugars e5 d10 e5, PS)”, the target mRNA inhibition with DGAT2 (HepG2, 0.12 µM) stood at 50%.

On to “AGACCACATGAAGTATCTAA (sugars e5 d10 e5, PS)”, for which the target mRNA inhibition in the data set with DGAT2 (HepG2, 0.12 µM) amounted to 50%.

On to “AGGACCCACTGGAGCACTGA (sugars e3 d14 e3, PS)”, for which the target mRNA inhibition in the data set with DGAT2 (HepG2, 0.12 µM) was found to be 82%; with DGAT2 (HepG2, 2.5 µM), 16%; in the data set with DGAT2 (HepG2, 10 µM) it was 38%; in the data set with DGAT2 (HepG2, 20 µM), 53%.

With “CCTGCAGAAAAAGCAACCAA (sugars e5 d10 e5, PS)”, the target mRNA inhibition in the data set with DGAT2 (HepG2, 2.5 µM) came out at 30%; with DGAT2 (HepG2, 10 µM), 75%.

With “CTGGCTCAGTTCACCTCCAG (sugars e5 d10 e5, PS)”, in the data set with DGAT2 (HepG2, 0.12 µM), the target mRNA inhibition amounted to 90%.

With “CATGGAGCTCAGAGACTCAG (sugars e3 d14 e3, PS)”, in the data set with DGAT2 (HepG2, 0.12 µM), the target mRNA inhibition worked out at 62%.

Regarding “TGAGTAAGGGTATTCTGCTC (sugars e5 d10 e5, PS)”, the target mRNA inhibition in the data set with DGAT2 (HepG2, 2.5 µM) was 80% and 72%; in the data set with DGAT2 (HepG2, 10 µM), 93% and 91%.

For “ACTGGTGCCTAAGAGCCCTA (sugars e5 d10 e5, PS)”, the target mRNA inhibition in the data set with DGAT2 (HepG2, 2.5 µM) amounted to 77%; with DGAT2 (HepG2, 10 µM), 94%.

For the sequence “TGTAATGGTTTAGCAAAATT (sugars e5 d10 e5, PS)”, the target mRNA inhibition in the data set with DGAT2 (HepG2, 0.12 µM) was 26%.

Take “CACCAGGGCCTCCATGTACA (sugars e3 d14 e3, PS)”: the target mRNA inhibition with DGAT2 (HepG2, 0.12 µM) came to 41%.

In the case of “GCATTGCCACTCCCATTCTT (sugars e3 d14 e3, PS)”, in the data set with DGAT2 (HepG2, 0.12 µM), the target mRNA inhibition is 85%.

“TATCCAAAGATATAGTTCCT (sugars e5 d10 e5, PS)”: the target mRNA inhibition with DGAT2 (HepG2, 0.12 µM) worked out at 13%.

Regarding “TCATGAGAAGCTTAGAAGGC (sugars e5 d10 e5, PS)”, in the data set with DGAT2 (HepG2, 0.12 µM), the target mRNA inhibition turned out to be 58%.

On to “CCTGGACAAGTCCTGCCCAT (sugars e5 d10 e5, PS)”, for which the target mRNA inhibition with DGAT2 (HepG2, 0.12 µM) came out at 73%.

For the sequence “GTTCTACTATACTTTCCTC (sugars l1 d14 l1 d1 l2, PS)”, in the data set with SNHG14 (7.5 µM), the target mRNA inhibition amounted to 54%.

As to “CCATTTATTTCCATTTAT (sugars l3 d12 l3, PS)”, the values for the target mRNA inhibition with SNHG14 (0.2 µM) and with SNHG14 (1 µM) were 38% and 59%, respectively.

Regarding “TACCTACATCTCATACTT (sugars l2 d14 l2, PS)”, the target mRNA inhibition in the data set with SNHG14 (0.2 µM) was -10%; in the data set with SNHG14 (1 µM) it was 11%; with SNHG14 (5 µM) it was 6%.

For “TACACTTAATTATACTTCCA (sugars l1 d4 l1 d11 l3, PS)”, in the data set with SNHG14 (7.5 µM), the target mRNA inhibition is 53%.

Turning to “TGTTTATACCCTTTCCAA (sugars lddddlddddddldldll, PS)”, the target mRNA inhibition with SNHG14 (7.5 µM) stood at 47%.

Regarding TGAAACTATTACTCCT (sugars l3 d10 l3, PS), the target mRNA inhibition with SNHG14 (0.2 µM) was 44%; with SNHG14 (1 µM), 61%.

Consider “TTTACACTTAATTATACTTC (sugars ldddlldddddddllddlll, PS)”, for which the target mRNA inhibition with SNHG14 (7.5 µM) worked out at 60%.

In the case of “ACTGTTTATACCCTTTCC (sugars l1 d2 l1 d12 l2, PS)”, the target mRNA inhibition with SNHG14 (7.5 µM) was 46%.

In the case of “CTGTATACACCATCCCA (sugars ldldlddddddddldll, PS)”, the target mRNA inhibition in the data set with SNHG14 (7.5 µM) is 62%.

Take TTCCCTTTGATAACAT (sugars l4 d10 l2, PS): the target mRNA inhibition amounted to 9% in the data set with SNHG14 (0.2 µM) and 34% with SNHG14 (1 µM).

“TTGATTCAATTCCCTTA (sugars lldldddddddldldll, PS)”: in the data set with SNHG14 (7.5 µM), the target mRNA inhibition came out at 59%.

On to “TTTTTTTCTTACTATCTTCA (sugars l1 d2 l2 d13 l2, PS)”, for which, in the data set with SNHG14 (7.5 µM), the target mRNA inhibition was found to be 43%.

In the case of “GCACATTCTTTCTATACC (sugars l1 d4 l1 d9 l3, PS)”, the target mRNA inhibition with SNHG14 (7.5 µM) was found to be 59%.

“AGATCATTCTCAACAATTA (sugars ldddlddddddddlldlll, PS)”: the target mRNA inhibition in the data set with SNHG14 (7.5 µM) was 63%.

With “ATCATTCTCAACAATTA (sugars l1 d1 l3 d6 l6, PS)”, the target mRNA inhibition with SNHG14 (7.5 µM) was -24%.

Consider “AAAATCTCAACTACCATTT (sugars l6 d9 l4, PS)”, for which the target mRNA inhibition with SNHG14 (7.5 µM) amounted to 23%.

On to “ATCTGCTACATATTCTT (sugars l4 d11 l2, PS)”, for which the values for the target mRNA inhibition with SNHG14 (0.2 µM) and with SNHG14 (1 µM) were 50% and 59%, respectively.

Turning to AGCATTCAACCCTAAT (sugars l4 d10 l2, PS), the target mRNA inhibition turned out to be 52% with SNHG14 (0.2 µM) and 60% with SNHG14 (1 µM).

Take “ACTGTTTATACCCTTTC (sugars l1 d11 l1 d2 l2, PS)”: the target mRNA inhibition in the data set with SNHG14 (7.5 µM) amounted to 56%.

Consider “CTGCCATCTTTATTTAT (sugars l4 d11 l2, PS)”, for which the target mRNA inhibition with SNHG14 (0.2 µM) was determined as 5%; with SNHG14 (1 µM), 9%.

Regarding “GTCATCTAACTTCTTAC (sugars l3 d11 l3, PS)”, the target mRNA inhibition worked out at 45% in the data set with SNHG14 (0.2 µM) and 46% in the data set with SNHG14 (1 µM).
